Measured values published in patent US8138168B1 (Takeda Pharmaceutical Company Limited, priority 2007, dated 2012).

Molecular target: T1, Recombinant human renin (Homo sapiens, UniProt P00797)
T1 construct: isolate the active form (residues 67-406); made in house; host or cells: FreeStyle 293-F cells (transient expression of pcDNA3.1(+)/hREN)
T1 sequence (P00797 67-406): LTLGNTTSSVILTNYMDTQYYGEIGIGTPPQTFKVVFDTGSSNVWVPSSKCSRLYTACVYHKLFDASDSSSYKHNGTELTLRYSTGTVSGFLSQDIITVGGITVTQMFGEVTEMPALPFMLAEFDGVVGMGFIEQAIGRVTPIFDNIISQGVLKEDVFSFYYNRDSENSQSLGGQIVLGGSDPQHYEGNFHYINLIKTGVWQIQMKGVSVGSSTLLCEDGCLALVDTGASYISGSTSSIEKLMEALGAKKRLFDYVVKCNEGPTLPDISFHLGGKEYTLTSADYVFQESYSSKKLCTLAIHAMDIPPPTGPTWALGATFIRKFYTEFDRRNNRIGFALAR
Assay: In vitro enzymatic activity assay of renin inhibitors (fluorogenic peptide substrate)
Type: biochemical
Conditions: read-out: IC50 of Exemplified Compounds Against Renin
Summary of the method: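 Enzyme: recombinant human renin, 3 nM final, 10 min compound pre-incubation at 37 °C; buffer 50 mM Hepes pH 7.4 with 0.1 mg/mL BSA or extra 2% BSA; 5% DMSO.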

Row | IC50 [nM] | SMILES
1 | 100 to 1000 | COCCCn1c([C@@H]2CCCN(C(=O)C[C@H](N)CNS(=O)(=O)c3ccccc3)C2)nc2ccccc21 [Compound 316, N-((S)-2-amino-4-((R)-3-(1-(3-methoxypropyl)-1H-benzo[d]imidazol-2-yl)piperidin-1-yl)-4-oxobutyl)benzenesulfonamide]
2 | < 100 | COCCCn1c([C@@H]2CCCN(C(=O)C[C@H](N)Cc3ccc(-c4ccc(NC(=O)OC)cc4)cc3)C2)nc2ccccc21 [Compound 176, methyl 4′-((R)-2-amino-4-((R)-3-(1-(3-methoxypropyl)-1H-benzo[d]imidazol-2-yl)piperidin-1-yl)-4-oxobutyl)biphenyl-4-ylcarbamate]
3 | < 100 | COCCCn1c([C@@H]2CCCN(C(=O)C[C@H](N)Cc3ccc(-c4ccc(N5CCNC5=O)cc4)cc3)C2)nc2ccccc21 [Compound 436, 1-(4′-((R)-2-amino-4-((R)-3-(1-(3-methoxypropyl)-1H-benzo[d]imidazol-2-yl)piperidin-1-yl)-4-oxobutyl)biphenyl-4-yl)imidazolidin-2-one]
4 | 100 to 1000 | CC(=O)NCCn1c([C@@H]2CCCN(C(=O)C[C@H](N)Cc3ccc(-c4ccc(O)nc4)cc3)C2)nc2c(Cl)cccc21 [Compound 478, N-(2-(2-((R)-1-((R)-3-amino-4-(4-(6-hydroxypyridin-3-yl)phenyl)butanoyl)piperidin-3-yl)-4-chloro-1H-benzo[d]imidazol-1-yl)ethyl)acetamide]
5 | < 100 | COCCCn1c([C@@H]2CCCN(C(=O)C[C@H](N)Cc3ccc(-n4ccc5ccccc5c4=O)cc3)C2)nc2ccccc21 [Compound 229, 2-(4-((R)-2-amino-4-((R)-3-(1-(3-methoxypropyl)-1H-benzo[d]imidazol-2-yl)piperidin-1-yl)-4-oxobutyl)phenyl)isoquinolin-1(2H)-one]
6 | < 100 | COCCCn1c([C@@H]2CCCN(C(=O)C[C@H](N)Cc3ccc4ccccc4c3)C2)nc2cc(C)ccc21 [Compound 105, (R)-3-amino-1((R)-3-(1-(3-methoxypropyl)-5-methyl-1H-benzo[d]imidazol-2-yl)piperidin-1-yl)-4-(naphthalen-2-yl)butan-1-one]
7 | > 1000 | CCCNC(=O)N1CCCC(c2nc3ccccc3[nH]2)C1 (stereo not drawn) [Compound 17, 3-(1H-benzo[d]imidazol-2-yl)-N-propylpiperidine-1-carboxamide]
8 | < 100 | COCCCNC(=O)c1ccc(-c2ccc(C[C@@H](N)CC(=O)N3CCC[C@@H](c4nc5ccccc5n4CCCOC)C3)cc2)cc1 [Compound 180, 4′-((R)-2-amino-4-((R)-3-(1-(3-methoxypropyl)-1H-benzo[d]imidazol-2-yl)piperidin-1-yl)-4-oxobutyl)-N-(3-methoxypropyl)biphenyl-4-carboxamide]
9 | > 1000 | N[C@@H](CC(=O)N1CCCC(c2nc3ccccc3[nH]2)C1)c1ccccc1[N+](=O)[O-] (stereo partly drawn) [Compound 26, (3S)-1-(3-(1H-benzo[d]imidazol-2-yl)piperidin-1-yl)-3-amino-3-(2-nitrophenyl)propan-1-one]
10 | < 100 | COCCCn1c([C@@H]2CCCN(C(=O)C[C@H](N)Cc3ccc(-c4ccc(C(=O)NCCOC)nc4)cc3)C2)nc2ccccc21 [Compound 195, 5-(4-((R)-2-amino-4-((R)-3-(1-(3-methoxypropyl)-1H-benzo[d]imidazol-2-yl)piperidin-yl)-4-oxobutyl)phenyl)-N-(2-methoxyethyl)picolinamide]
11 | > 1000 | N[C@@H](CC(=O)N1CCCC(c2nc3ccccc3[nH]2)C1)c1ccc(Cl)cc1Cl (stereo partly drawn) [Compound 35, (3S)-1-(3-(1H-benzo[d]imidazol-2-yl)piperidin-1-yl)-3-amino-3-(2,4-dichlorophenyl)propan-1-one]
12 | 100 to 1000 | COCCCn1c([C@@H]2CCCN(C(=O)[C@@H]3CN(C(=O)c4cccc(Oc5ccccc5)c4)C[C@H]3N)C2)nc2ccccc21 [Compound 358, ((3R,4S)-4-amino-1-(3-phenoxybenzoyl)pyrrolidin-3-yl)((R)-3-(1-(3-methoxypropy1)-1H-benzo[d]imidazol-2-yl)piperidin-1-yl)methanone]
13 | 100 to 1000 | NC(=O)CCn1c([C@@H]2CCCN(C(=O)C[C@H](N)Cc3ccc(-c4ccc(N)nc4)cc3)C2)nc2ccccc21 [Compound 480, 3-(2-((R)-1-((R)-3-amino-4-(4-(6-aminopyridin-3-yl)phenyl)butanoyl)piperidin-3-yl)-1H-benzo[d]imidazol-1-yl)propanamide]
14 | 100 to 1000 | COCCCn1c([C@@H]2CCCN(C(=O)C[C@H](N)Cc3ccc(N4CCN(c5ccccc5)C(=O)C4)cc3)C2)nc2ccccc21 [Compound 233, 4-(4-((R)-2-amino-4-((R)-3-(1-(3-methoxypropyl)-1H-benzo[d]imidazol-2-yl)piperidin-1-yl)-4-oxobutyl)phenyl)-1-phenylpiperazin-2-one]
15 | < 100 | CCNC(=O)Nc1ccc(-c2ccc(C[C@@H](N)CC(=O)N3CCC[C@@H](c4nc5ccccc5n4CCCOC)C3)cc2)cc1 [Compound 173, 1-(4′-((R)-2-amino-4-((R)-3-(1-(3-methoxypropyl)-1H-benzo[d]imidazol-2-yl)piperidin-1-yl)-4-oxobutyl)biphenyl-4-yl)-3-ethylurea]
16 | 100 to 1000 | COCCCn1c([C@@H]2CCCN(C(=O)C[C@H](N)CNC(=O)Nc3ccccc3Oc3ccccc3)C2)nc2ccccc21 [Compound 272, 1-((S)-2-amino-4-((R)-3-(1-(3-methoxypropyl)-1H-benzo[d]imidazol-2-yl)piperidin-1-yl)-4-oxobutyl)-3-(2-phenoxyphenyl)urea]
17 | < 100 | COCCCn1c([C@@H]2CCCN(C(=O)C[C@H](N)Cc3ccc(-c4csc(N5CC[C@H](O)C5)n4)cc3)C2)nc2ccccc21 [Compound 435, (R)-3-amino-4-(4-(2-((S)-3-hydroxypyrrolidin-1-yl)thiazol-4-yl)phenyl)-1-((R)-3-(1-(3-methoxypropyl)-1H-benzo[d]imidazol-2-yl)piperidin-1-yl)butan-1-one]
18 | 100 to 1000 | CC(=O)NCCn1c([C@@H]2CCCN(C(=O)C[C@H](N)Cc3ccc(-c4ccc5c(c4)OCCO5)cc3)C2)nc2ccccc21 [Compound 449, N-(2-(2-((R)-1-((R)-3-amino-4-(4-(2,3-dihydrobenzo[b][1,4]dioxin-6-yl)phenyl)butanoyl)piperidin-3-yl)-1H-benzo[d]imidazol-1-yl)ethyl)acetamide]
19 | > 1000 | COCCCn1c([C@@H]2CCCN(C(=O)[C@@H]3CN(C(=O)Nc4ccccc4OC)C[C@H]3N)C2)nc2ccccc21 [Compound 400, (3S,4R)-3-amino-N-(2-methoxyphenyl)-4-((R)-3-(1-(3-methoxypropyl)-1H-benzo[d]imidazol-2-yl)piperidine-1-carbonyl)pyrrolidine-1-carboxamide]
20 | 100 to 1000 | COCCCn1c([C@@H]2CCCN(C(=O)[C@@H]3CN(S(=O)(=O)c4cc(C)c(Cl)cc4C)C[C@H]3N)C2)nc2ccccc21 [Compound 344, ((3R,4S)-4-amino-1-(4-chloro-2,5-dimethylphenylsulfonyl)pyrrolidin-3-yl)((R)-3-(1-(3-methoxypropyl)-1H-benzo[d]imidazol-2-yl)piperidin-1-yl)methanone]
21 | 100 to 1000 | COCCCn1c([C@@H]2CCCN(C(=O)C[C@H](N)CNS(=O)(=O)C(C)C)C2)nc2ccccc21 [Compound 312, N-((S)-2-amino-4-((R)-3-(1-(3-methoxypropyl)-1H-benzo[d]imidazol-2-yl)piperidin-1-yl)-4-oxobutyl)propane-2-sulfonamide]
